Test results reported in patent US9926281B2 (priority 2014, dated 2018).
Read-outs that look alike come from different tables or passages of the source.

How the values were obtained:
human ADAMTS-5 [1] = biological target: T1, human ADAMTS-5 (Homo sapiens (Human), UniProt Q9UNA0); conditions: read-out: hADAMTS-5 potency IC50
rnADAMTS-5 (1-564-6H) = rnADAMTS-5 (1-564-6H) (Rattus norvegicus, UniProt Q6TY19); conditions: read-out: Rat ADAMTS-5 potency IC50
human MMP13 = human MMP13 (Homo sapiens (Human), UniProt P45452); conditions: read-out: hMMP-13 potency IC50
Experimental: Human MMP13 is preactivated by incubated the enzyme in the same buffer complemented with 1 mM freshly prepared p-Aminophenylmercuric acetate (AMPA) for 1 hour at 37° C.

human TACE = human TACE (Homo sapiens (Human), UniProt P78536); conditions: read-out: TACE potency IC50
human ADAMTS-5 [2] = biological target: T1, human ADAMTS-5; conditions: read-out: hADAMTS-5 potency IC50; remark: listed apart in the source
Experimental: Finally, the fluorescence is read on the Envision (Perkin Elmer) after an incubation of 90 min at 37° C.

human MMP14 = human MMP14 (Homo sapiens (Human), UniProt P50281); conditions: read-out: hMMP-14 potency IC50

T1 sequence (Q9UNA0 262-930): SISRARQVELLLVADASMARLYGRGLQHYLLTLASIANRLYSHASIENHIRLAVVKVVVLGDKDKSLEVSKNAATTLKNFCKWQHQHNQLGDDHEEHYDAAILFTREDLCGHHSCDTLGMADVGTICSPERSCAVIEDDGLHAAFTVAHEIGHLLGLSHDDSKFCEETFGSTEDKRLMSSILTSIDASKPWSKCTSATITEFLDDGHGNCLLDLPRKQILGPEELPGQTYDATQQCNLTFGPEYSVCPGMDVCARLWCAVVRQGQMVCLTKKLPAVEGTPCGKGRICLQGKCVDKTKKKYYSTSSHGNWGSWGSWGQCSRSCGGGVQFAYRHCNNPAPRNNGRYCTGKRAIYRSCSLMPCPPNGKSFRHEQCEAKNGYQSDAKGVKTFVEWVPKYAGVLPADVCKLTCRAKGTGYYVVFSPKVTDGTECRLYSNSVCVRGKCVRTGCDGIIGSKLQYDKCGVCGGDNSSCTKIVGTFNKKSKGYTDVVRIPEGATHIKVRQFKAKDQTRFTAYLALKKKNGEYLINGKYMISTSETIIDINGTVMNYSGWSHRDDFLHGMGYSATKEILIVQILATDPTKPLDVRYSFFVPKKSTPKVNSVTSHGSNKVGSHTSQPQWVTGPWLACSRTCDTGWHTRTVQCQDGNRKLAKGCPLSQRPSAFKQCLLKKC
Sequence of human TACE (P78536 whole entry, looked up, change not shown): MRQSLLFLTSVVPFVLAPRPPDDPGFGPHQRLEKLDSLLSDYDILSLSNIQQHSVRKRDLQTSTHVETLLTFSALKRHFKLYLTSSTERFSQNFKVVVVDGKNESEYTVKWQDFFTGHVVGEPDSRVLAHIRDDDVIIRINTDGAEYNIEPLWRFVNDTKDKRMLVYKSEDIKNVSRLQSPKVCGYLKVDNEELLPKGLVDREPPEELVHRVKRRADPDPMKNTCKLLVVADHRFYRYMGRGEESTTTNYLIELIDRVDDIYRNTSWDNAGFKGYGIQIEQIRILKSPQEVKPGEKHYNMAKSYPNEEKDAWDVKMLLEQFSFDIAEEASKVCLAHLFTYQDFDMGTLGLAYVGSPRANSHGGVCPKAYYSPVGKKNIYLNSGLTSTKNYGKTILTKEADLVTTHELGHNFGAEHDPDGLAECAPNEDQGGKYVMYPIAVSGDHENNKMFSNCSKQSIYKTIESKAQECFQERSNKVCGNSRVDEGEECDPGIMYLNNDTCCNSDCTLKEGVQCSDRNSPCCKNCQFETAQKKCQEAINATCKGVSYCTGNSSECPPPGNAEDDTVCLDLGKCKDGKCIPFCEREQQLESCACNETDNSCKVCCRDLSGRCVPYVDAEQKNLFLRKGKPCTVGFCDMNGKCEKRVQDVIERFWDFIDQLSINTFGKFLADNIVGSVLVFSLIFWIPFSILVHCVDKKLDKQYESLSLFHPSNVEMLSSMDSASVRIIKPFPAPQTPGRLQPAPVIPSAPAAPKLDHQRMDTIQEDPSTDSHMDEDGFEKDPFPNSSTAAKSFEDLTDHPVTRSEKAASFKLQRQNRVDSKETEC

For `CC1CN(C(=O)CCC2(c3cccnc3)NC(=O)NC2=O)CCN1c1ccccc1` (stereo not drawn) [compound 105, 5-[3-(3-methyl-4-phenyl-piperazin-1-yl)-3-oxo-propyl]-5-(3-pyridyl)imidazolidine-2,4-dione], the IC50 (human ADAMTS-5 [1]) was 226 nM, the IC50 (rnADAMTS-5 (1-564-6H)) was 162 nM and the IC50 (human MMP13) was > 20000 nM. The IC50 (human TACE) was > 20000 nM.
In the case of `CC1CN(C(=O)CCC2(C3CC3)NC(=O)NC2=O)CCN1c1ccccc1` (stereo not drawn) [compound 106, 5-cyclopropyl-5-[3-(3-methyl-4-phenyl-piperazin-1-yl)-3-oxo-propyl]imidazolidine-2,4-dione], the IC50 (human ADAMTS-5 [1]) is reported as 233 nM, the IC50 (rnADAMTS-5 (1-564-6H)) is reported as 222 nM and the IC50 (human MMP13) is reported as > 20000 nM. The IC50 (human TACE) was > 20000 nM.
For `CC(C)(C)C1(CCC(=O)N2CCN(c3cccc(Cl)c3)CC2)NC(=O)NC1=O` (stereo not drawn) [compound 107, 5-tert-butyl-5-[3-[4-(3-chlorophenyl)piperazin-1-yl]-3-oxo-propyl]imidazolidine-2,4-dione], the IC50 (human ADAMTS-5 [1]) was 172 nM, the IC50 (rnADAMTS-5 (1-564-6H)) was 147 nM and the IC50 (human MMP13) was > 20000 nM. For the same molecule, the IC50 (human TACE) was > 4000 nM.
With `O=C1NC(=O)C(CCC(=O)N2CCN(c3cccc(Cl)c3)CC2)(C2CCCC2)N1` (stereo not drawn) [compound 109, 5-[3-[4-(3-chlorophenyl)piperazin-1-yl]-3-oxo-propyl]-5-cyclopentyl-imidazolidine-2,4-dione] the IC50 (human ADAMTS-5 [1]) was 261 nM, the IC50 (rnADAMTS-5 (1-564-6H)) was 182 nM and the IC50 (human MMP13) was > 4000 nM. It also gave an IC50 (human TACE) of 5260 nM.
`O=C1NC(=O)C(CCC(=O)N2CCN(c3cc(Cl)cc(Cl)c3)CC2)(c2cccnc2)N1` (stereo not drawn) [compound 111, 5-[3-[4-(3,5-dichlorophenyl)piperazin-1-yl]-3-oxo-propyl]-5-(3-pyridyl)imidazolidine-2,4-dione] was tested, and the IC50 (human ADAMTS-5 [1]) was 42 nM, the IC50 (rnADAMTS-5 (1-564-6H)) was 46 nM and the IC50 (human MMP13) was > 20000 nM. The IC50 (human TACE) was 963 nM.
In the case of `O=C1NC(=O)C(CCC(=O)N2CCN(c3ccc(F)c(F)c3)CC2)(C2CC2)N1` (stereo not drawn) [compound 113, 5-cyclopropyl-5-[3-[4-(3,4-difluorophenyl)piperazin-1-yl]-3-oxo-propyl]imidazolidine-2,4-dione], the IC50 (human ADAMTS-5 [1]) is reported as 104 nM, the IC50 (rnADAMTS-5 (1-564-6H)) is reported as 91 nM and the IC50 (human MMP13) is reported as 3620 nM. For the same molecule, the IC50 (human TACE) was > 20000 nM.
For `O=C1NC(=O)C(CCC(=O)N2CCN(c3ccc(F)c(Cl)c3)CC2)(C2CC2)N1` (stereo not drawn) [compound 114, 5-[3-[4-(3-chloro-4-fluoro-phenyl)piperazin-1-yl]-3-oxo-propyl]-5-cyclopropyl-imidazolidine-2,4-dione], the IC50 (human ADAMTS-5 [1]) was 67 nM, the IC50 (rnADAMTS-5 (1-564-6H)) was 62 nM and the IC50 (human MMP13) was 2580 nM. The IC50 (human TACE) was > 20000 nM.
`CC(CC1(C2CC2)NC(=O)NC1=O)C(=O)N1CCN(c2cccc(Cl)c2)CC1` (stereo not drawn) [compound 121, 5-[3-[4-(3-chlorophenyl)piperazin-1-yl]-2-methyl-3-oxo-propyl]-5-cyclopropyl-imidazolidine-2,4-dione] showed an IC50 (human ADAMTS-5 [1]) of 15 nM, an IC50 (rnADAMTS-5 (1-564-6H)) of 24 nM and an IC50 (human MMP13) of 70.6 nM. For the same molecule, the IC50 (human ADAMTS-5 [2]) was 15 nM and the IC50 (human TACE) was 1100 nM.
`C[C@H]1CN(C(=O)CCC2(c3ccccc3)NC(=O)NC2=O)CCN1c1ccccc1` (stereo partly drawn) [compound 137, 5-[3-[(3S)-3-methyl-4-phenyl-piperazin-1-yl]-3-oxo-propyl]-5-phenyl-imidazolidine-2,4-dione] was tested, and the IC50 (human ADAMTS-5 [1]) was 240 nM, the IC50 (rnADAMTS-5 (1-564-6H)) was 249 nM and the IC50 (human MMP13) was > 20000 nM. For the same molecule, the IC50 (human TACE) was > 20000 nM.
For `O=C1NC(=O)C(CCC(=O)N2CCN(c3ccccc3)CC2)(C2CC2)N1` (stereo not drawn) [compound 138, 5-cyclopropyl-5-[3-oxo-3-(4-phenylpiperazin-1-yl)propyl]imidazolidine-2,4-dione], the IC50 (human ADAMTS-5 [1]) was 101 nM, the IC50 (rnADAMTS-5 (1-564-6H)) was 107 nM and the IC50 (human MMP13) was > 4000 nM. For the same molecule, the IC50 (human TACE) was > 20000 nM.
In the case of `COCC1(CC(C)C(=O)N2CCN(c3cc(Cl)cc(Cl)c3C)[C@@H](C)C2)NC(=O)NC1=O` (stereo partly drawn) [compound 227, 5-[3-[(3S)-4-(3,5-dichloro-2-methyl-phenyl)-3-methyl-piperazin-1-yl]-2-methyl-3-oxo-propyl]-5-(methoxymethyl)imidazolidine-2,4-dione], the IC50 (human MMP14) is reported as > 20000 nM.
In the case of `CC(CC1NC(=O)NC1=O)C(=O)N1CCN(c2ccc(F)c(F)c2)[C@@H](C)C1` (stereo partly drawn) [compound 251, 5-[3-[(3S)-4-(3,4-difluorophenyl)-3-methyl-piperazin-1-yl]-2-methyl-3-oxo-propyl]imidazolidine-2,4-dione], the IC50 (human ADAMTS-5 [2]) is reported as 94 nM, the IC50 (human TACE) is reported as > 12000 nM and the IC50 (human MMP14) is reported as > 4000 nM.
For `C[C@H]1CN(C(=O)CCC2(C3CC3)NC(=O)NC2=O)CCN1c1cccnc1` (stereo partly drawn) [compound 259, 5-cyclopropyl-5-[3-[(3S)-3-methyl-4-(3-pyridyl)piperazin-1-yl]-3-oxo-propyl]imidazolidine-2,4-dione], the IC50 (human ADAMTS-5 [2]) was 224 nM, the IC50 (human TACE) was > 20000 nM and the IC50 (human MMP14) was > 20000 nM.
In the case of `C[C@H]1CN(C(=O)CCC2(C3CC3)NC(=O)NC2=O)CCN1c1cncc(Cl)c1` (stereo partly drawn) [compound 260, 5-[3-[(3S)-4-(5-chloro-3-pyridyl)-3-methyl-piperazin-1-yl]-3-oxo-propyl]-5-cyclopropyl-imidazolidine-2,4-dione], the IC50 (human ADAMTS-5 [2]) is reported as 126 nM, the IC50 (human TACE) is reported as > 20000 nM and the IC50 (human MMP14) is reported as > 20000 nM.
With `C[C@H]1CN(C(=O)CCC2(C3CC3)NC(=O)NC2=O)CCN1c1cncc(F)c1` (stereo partly drawn) [compound 261, 5-cyclopropyl-5-[3-[(3S)-4-(5-fluoro-3-pyridyl)-3-methyl-piperazin-1-yl]-3-oxo-propyl]imidazolidine-2,4-dione] the IC50 (human ADAMTS-5 [2]) was 165 nM, the IC50 (human TACE) was > 20000 nM and the IC50 (human MMP14) was > 20000 nM.
For `C[C@H]1CN(C(=O)CCC2(C3CC3)NC(=O)NC2=O)CCN1c1cccc(Br)c1` (stereo partly drawn) [compound 270, 5-[3-[(3S)-4-(3-bromophenyl)-3-methyl-piperazin-1-yl]-3-oxo-propyl]-5-cyclopropyl-imidazolidine-2,4-dione], the IC50 (human ADAMTS-5 [2]) was 76 nM, the IC50 (human TACE) was > 4000 nM and the IC50 (human MMP14) was > 4000 nM.
`CC(CC1(C)NC(=O)NC1=O)C(=O)N1CCN(c2cncc(Cl)c2)[C@@H](C)C1` (stereo partly drawn) [compound 276, 5-[3-[(3S)-4-(5-chloro-3-pyridyl)-3-methyl-piperazin-1-yl]-2-methyl-3-oxo-propyl]-5-methyl-imidazolidine-2,4-dione] was tested, and the IC50 (human ADAMTS-5 [2]) was 115 nM, the IC50 (human TACE) was > 4000 nM and the IC50 (human MMP14) was > 20000 nM.
For `CC(CC1(C)NC(=O)NC1=O)C(=O)N1CCN(c2cncc(F)c2)[C@@H](C)C1` (stereo partly drawn) [compound 277, 5-[3-[(3S)-4-(5-fluoro-3-pyridyl)-3-methyl-piperazin-1-yl]-2-methyl-3-oxo-propyl]-5-methyl-imidazolidine-2,4-dione], the IC50 (human ADAMTS-5 [2]) was 152 nM, the IC50 (human TACE) was > 4000 nM and the IC50 (human MMP14) was > 20000 nM.
`C[C@H]1CN(C(=O)CCC2(C3CC3)NC(=O)NC2=O)CCN1c1cccc(-c2cn[nH]c2)c1` (stereo partly drawn) [compound 282, 5-cyclopropyl-5-[3-[(3S)-3-methyl-4-[3-(1H-pyrazol-4-yl)phenyl]piperazin-1-yl]-3-oxo-propyl]imidazolidine-2,4-dione] was tested, and the IC50 (human ADAMTS-5 [2]) was 110 nM, the IC50 (human TACE) was > 20000 nM and the IC50 (human MMP14) was > 20000 nM.
In the case of `Cc1ccc(C2(CCC(=O)N3CCN(c4ccc(F)c(Cl)c4)[C@@H](C)C3)NC(=O)NC2=O)cn1` (stereo partly drawn) [compound 287, 5-[3-[(3S)-4-(3-chloro-4-fluoro-phenyl)-3-methyl-piperazin-1-yl]-3-oxo-propyl]-5-(6-methyl-3-pyridyl)imidazolidine-2,4-dione], the IC50 (human ADAMTS-5 [2]) is reported as 52 nM, the IC50 (human TACE) is reported as > 4000 nM and the IC50 (human MMP14) is reported as > 4000 nM.
For `C[C@H]1CN(C(=O)CCC2(c3ccncc3)NC(=O)NC2=O)CCN1c1ccc(F)c(Cl)c1` (stereo partly drawn) [compound 288, 5-[3-[(3S)-4-(3-chloro-4-fluoro-phenyl)-3-methyl-piperazin-1-yl]-3-oxo-propyl]-5-(4-pyridyl)imidazolidine-2,4-dione], the IC50 (human ADAMTS-5 [2]) was 72 nM, the IC50 (human TACE) was > 4000 nM and the IC50 (human MMP14) was > 4000 nM.
In the case of `Cc1cccc(C2(CCC(=O)N3CCN(c4cc(F)cc(Cl)c4)[C@@H](C)C3)NC(=O)NC2=O)n1` (stereo partly drawn) [compound 307, 5-[3-[(3S)-4-(3-chloro-5-fluoro-phenyl)-3-methyl-piperazin-1-yl]-3-oxo-propyl]-5-(6-methyl-2-pyridyl)imidazolidine-2,4-dione], the IC50 (human ADAMTS-5 [2]) is reported as 44 nM, the IC50 (human TACE) is reported as 3590 nM and the IC50 (human MMP14) is reported as > 20000 nM.
In the case of `Cc1cccc(C2(CCC(=O)N3CCN(c4cccc(F)c4)[C@@H](C)C3)NC(=O)NC2=O)n1` (stereo partly drawn) [compound 308, 5-[3-[(3S)-4-(3-fluorophenyl)-3-methyl-piperazin-1-yl]-3-oxo-propyl]-5-(6-methyl-2-pyridyl)imidazolidine-2,4-dione], the IC50 (human ADAMTS-5 [2]) is reported as 59 nM, the IC50 (human TACE) is reported as > 4000 nM and the IC50 (human MMP14) is reported as > 20000 nM.
For `Cc1cccc(C2(CCC(=O)N3CCN(c4cc(F)cc(F)c4)[C@@H](C)C3)NC(=O)NC2=O)n1` (stereo partly drawn) [compound 309, 5-[3-[(3S)-4-(3,5-difluorophenyl)-3-methyl-piperazin-1-yl]-3-oxo-propyl]-5-(6-methyl-2-pyridyl)imidazolidine-2,4-dione], the IC50 (human ADAMTS-5 [2]) was 31 nM, the IC50 (human TACE) was > 4000 nM and the IC50 (human MMP14) was > 20000 nM.
In the case of `CC(CC1(C2CC2)NC(=O)NC1=O)C(=O)N1CCN(c2cncc(F)c2)[C@@H](C)C1` (stereo partly drawn) [compound 313, 5-cyclopropyl-5-[3-[(3S)-4-(5-fluoro-3-pyridyl)-3-methyl-piperazin-1-yl]-2-methyl-3-oxo-propyl]imidazolidine-2,4-dione], the IC50 (human ADAMTS-5 [2]) is reported as 34 nM, the IC50 (human TACE) is reported as > 20000 nM and the IC50 (human MMP14) is reported as > 20000 nM.
`C[C@H]1CN(C(=O)CCC2(c3cccnc3)NC(=O)NC2=O)CCN1c1ccc(F)c(Cl)c1` (stereo partly drawn) [compound 316, 5-[3-[(3S)-4-(3-chloro-4-fluoro-phenyl)-3-methyl-piperazin-1-yl]-3-oxo-propyl]-5-(3-pyridyl)imidazolidine-2,4-dione] was tested, and the IC50 (human ADAMTS-5 [2]) was 61 nM, the IC50 (human TACE) was > 4000 nM and the IC50 (human MMP14) was > 20000 nM.
For `C[C@H]1CN(C(=O)CCC2(c3cccnc3)NC(=O)NC2=O)CCN1c1cc(F)cc(Cl)c1` (stereo partly drawn) [compound 317, 5-[3-[(3S)-4-(3-chloro-5-fluoro-phenyl)-3-methyl-piperazin-1-yl]-3-oxo-propyl]-5-(3-pyridyl)imidazolidine-2,4-dione], the IC50 (human ADAMTS-5 [2]) was 52 nM, the IC50 (human TACE) was > 4000 nM and the IC50 (human MMP14) was 823 nM.
